Measurements reported in patent US20090176891A1, “DENTAL COMPOSITION AND METHOD OF USE” (priority 2007, published 2009).
Like-named read-outs stand apart in the source and are kept apart here.

What was measured:
[1] = species not given; cited from earlier work
[2] = test system: RAT; settings: cited from earlier work
[3] = test system: common bacteria associated with failed root canal therapy; assay: Drug efficacy: zones of inhibition on agar plates; assay type: cell-based
Description: FIG. 6 is graph showing the antimicrobial efficacy of various dose strengths of CHX on bacterial growth on agar plates. The efficacy of the eluted amounts of CHX was tested to evaluate anti-microbial activity at various dose strengths compared to a positive control (Ampicillin). This pilot study was done to obtain a range of CHX elution amounts by weight required to kill common bacteria associated with failed root canal therapy.

Structure (SMILES): [Cl-].c1ccc([I+]c2ccccc2)cc1 [I5, Diphenyliodonium chloride]
- LD50 [1]: 60 mg/kg

Structure (SMILES): C=C(C)C(=O)OCCN(C)C [I4, N,N-Dimethylaminoethyl Methacrylate]
- LD50 ([2]; RAT ORAL): 1751 mg/kg

Structure (SMILES): C=C(C)C(=O)OCCOCCOCCOC(=O)C(=C)C [M4, triethylene glycol dimethacrylate]
- LD50 [1]: 10750 mg/kg

Structure (SMILES): CCOC(=O)c1ccc(N(C)C)cc1 [I3, Ethyl-4-N,N-dimethylaminobenzoate]
- LD50 ([2]; RAT): 2000 mg/kg

Structure (SMILES): C=C(C)C(=O)OCCO [M5, hydroxyl ethyl methacrylate]
- LD50 [1]: 4680 mg/kg

Structure (SMILES): C=C(C)C(=O)OCC(O)COc1ccc(C(C)(C)c2ccc(OCC(O)COC(=O)C(=C)C)cc2)cc1 (centres unmarked) [M3, 2,2-bis[p-(2-hydroxy-3-methacryloxypropoxy)phenyl]propane]
- LD50 ([2]; RAT): > 5000 mg/kg

Structure (SMILES): CC1(C)S[C@@H]2[C@H](NC(=O)[C@H](N)c3ccccc3)C(=O)N2[C@H]1C(=O)O [Ampicillin]
- zone of inhibition at 10000 µg/disc ([3]; 10 mg, positive control): 14.5 mm

Structure (SMILES): [H]/N=C(\N/C(=N/[H])NCCCCCCNC(=N)NC(=N)Nc1ccc(Cl)cc1)Nc1ccc(Cl)cc1 [CHX, chlorohexidine]
- LD50 [1]: 2000 mg/kg
- antimicrobial effect ([3]; 4 μg, compared with water (negative control)): some antimicrobial effect can be seen
- zones of inhibition compared with Ampicillin ([3]; 31 to 250 μg): equal to or better than that of Ampicillin
- zone of inhibition at 0.5 µg/disc ([3]; dose 0.5 μg): 0 mm
- zone of inhibition at 1 µg/disc ([3]; dose 1 μg): 0 mm
- zone of inhibition at 2 µg/disc ([3]; dose 2 μg): 0 mm
- zone of inhibition at 4 µg/disc ([3]; dose 4 μg): 7 mm
- zone of inhibition at 7.8 µg/disc ([3]; dose 7.8 μg): 9 mm
- zone of inhibition at 15.6 µg/disc ([3]; dose 15.6 μg): 12.3 mm
- zone of inhibition at 31.25 µg/disc ([3]; dose 31.25 μg): 14.3 mm
- zone of inhibition at 62.5 µg/disc ([3]; dose 62.5 μg): 16.7 mm
- zone of inhibition at 125 µg/disc ([3]; dose 125 μg): 16.3 mm
- zone of inhibition at 250 µg/disc ([3]; dose 250 μg): 17.3 mm
